Results reported in patent US8124582B2, “Treatment of diabetes” (FibroGen, Inc., priority 2002, dated 2012).

Key:
GluT-1 = GluT-1 protein levels in H9c2 cells (Western blot); format: cell-based, rat; conditions: H9c2 cells, 5, 10, and 20 μM, 16 hours; FIG. 1B
Description: Human SSC-25 (squamous cell carcinoma) or rat H9c2 (ventricular cardiomyocyte) cells were grown to confluence in 100 mm culture dishes at 37° C., 10% CO2 in DMEM with 10% fetal calf serum. Cells were then washed twice with PBS and incubated with vehicle control, compound D (10 and 25 μM), or compound C (5, 10, and 20 μM) for 16 hours. Plates were placed on ice, culture supernatant was removed, and lysis buffer-1 (LB-1: 10 mM Tris pH 7.4, 1 mM EDTA, 150 mM sodium chloride, 0.5% IGEPAL) was added. Cell lysates were harvested by scraping, incubated for 15 minutes on ice, and then centrifuged at 3000×g for 5 minutes at 4° C. The supernatant, which represents the cytosolic fraction, was collected and cytosolic proteins were separated under reducing conditions using SDS-polyacrylamide gel electrophoresis (SDS-PAGE) with equal amounts of protein loaded per lane.
SDS-PAGE was conducted at 150 V for 2 hours, after which the proteins were transferred to a PVDF membrane at 400 mA for 1.5 hours at 4° C. The membrane was incubated in blocking buffer for 2 hours or overnight and washed once with T-TBS prior to addition of anti-GluT-1 antibody (Alpha Diagnostics) diluted to working concentration in blocking buffer. […]

[1] = Serum triglyceride levels in db/db mice; format: in vivo, male db/db mice; conditions: 0.5 mg/ml in drinking water, 8 weeks
Source text: The effect of compound administration on triglyceride levels was examined using a mouse model of diabetes as follows: Twenty male db/db mice (Harlan, Indianapolis, Ind.), which carry a homozygous loss-of-function mutation in the leptin receptor, were used for this study. Triglycerdide levels are typically elevated 1.5-2 times in db/db mice compared to that in normal mice. (Nishina et al (1994) Metabolism 43:549-553.) Triglyceride levels in db/db mice progressively increase with age. (Tuman and Doisy (1977) Diabetologia 13:7-11.) Mice received drinking water containing either vehicle (100 μM histidine) or compound A (0.5 mg/ml in 100 μM histidine) for a period of 8 weeks. At the termination of the study, animals were fasted overnight and blood samples were taken from the caudal vena cava under general anesthesia and placed in serum separator tubes. Blood samples were sent to Quality Clinical Labs (Mountain View, Calif.) for analysis.

[2] = Body weight gain, abdominal fat pad and organ weight in diet-induced obesity model; format: in vivo, male C57BL/6J mice; conditions: C57BL/6J mice, 75 mg/kg/day oral gavage, 28 days; for abdominal fat pad weight on high-fat diet: FIG. 9B; for organ weights of kidney, liver, and heart between experimental groups: FIG. 9C; for body weight gain on high-fat diet vs untreated high-fat diet: p<0.05, FIG. 9A
Source text: C57B1/6J mice fed a high-fat diet develop severe obesity, hyperglycemia, and hyperinsulinemia, and are a model of diet-induced obesity, Type 2 diabetes, and impaired glucose tolerance. Forty male C57BL/6J mice obtained from The Jackson Laboratory (Bar Harbor Me.) were divided into the following experimental groups: Group 1: vehicle control animals fed standard mouse chow (n=10); Group 2: vehicle control animals fed high-fat mouse chow (45% fat from Research Diets) (n=10); Group 3: animals fed high-fat mouse chow and administered 75 mg/kg/day compound E by oral gavage (n=10); Group 4: animals fed high-fat mouse chow and administered 75 mg/kg/day compound A by oral gavage (n=10). The feeding regimen was continued for 28 days with weekly measurement of body weight. Animals were then sacrificed and their organs and fat pads were harvested and weighed.

[3] = Glycated hemoglobin (HbA1c) in db/db mice; format: in vivo, male db/db mice; conditions: 0.5 mg/ml in drinking water
Description: The effect of compound administration on glycated hemoglobin levels was examined using a mouse model of diabetes as follows. Twenty male db/db mice (Harlan) received drinking water containing either vehicle (100 μM histidine) or compound A (0.5 mg/ml) for a period of 8 weeks. Prior to study initiation and at weeks 4 and 8 following treatment, blood samples were collected from the tail vein and HbA1c levels were measured using an HbA1cNOW kit (Metrika Inc., Sunnyvale Calif.).

[4] = Intra-Peritoneal Glucose Tolerance Test in diet-induced Type 2 diabetes model; format: in vivo, male C57BL/6J mice; conditions: 75 mg/kg/day oral gavage, 14 days
Description: C57B1/6J mice fed a high-fat diet develop severe obesity, hyperglycemia, and hyperinsulinemia, and are a model of diet-induced obesity, Type 2 diabetes, and impaired glucose tolerance. Forty male C57BL/6J mice obtained from The Jackson Laboratory (Bar Harbor Me.) were divided into the following experimental groups: Group 1: vehicle control animals fed standard mouse chow (n=10); Group 2: animals fed standard mouse chow and administered 75 mg/kg/day compound E by oral gavage (n=10); Group 3: vehicle control animals fed high-fat mouse chow (45% fat from Research Diets) (n=10); Group 4: animals fed high-fat mouse chow and administered 75 mg/kg/day compound E by oral gavage (n=10). The feeding regimen was continued for 14 days with daily measurement of body weight and food consumption. Animals were then fasted for 4 hours prior to an Intra-Peritoneal Glucose Tolerance Test (IPGTT) using a glucose load of 2 g glucose/kg body weight. Blood samples were taken for determination of blood glucose levels at 0, 15, 30, 60, and 90 minutes following glucose administration.

HIF-1α = HIF-1α stabilization in cells, TRANSAM HIF-1 ELISA of nuclear fractions; format: cell-based, Human; conditions: epithelial cells (293A) and hepatocellular carcinoma (Hep3B); FIG. 12B
Description: Stabilization of HIFα using compounds and methods of the present invention was examined as follows. Human cells derived from adenovirus-transformed fetal kidney epithelium (293A), cervical epithelial adenocarcinoma (HeLa), hepatocellular carcinoma (Hep3B), squamous carcinoma (SSC-25), and lung fibroblast (HLF) (see, e.g., American Type Culture Collection, Manassas Va.; and Qbiogene, Carlsbad Calif.) were separately seeded into 100 mm culture dishes and grown at 37° C., 20% O2, 10% CO2 in media as follows: HeLa cells in Dulbecco's Modification of Eagle's Medium (DMEM), 2% fetal bovine serum (FBS); HLF cells in DMEM, 10%FBS; 293A cells in DMEM, 5%FBS; and Hep3B cells in Minimal Essential Medium (MEM), Earle's BSS (Mediatech Inc., Herndon Va.), 2 mM L-glutamine, 0.1 mM non-essential amino acids, 1 mM sodium pyruvate, 10% FBS. When cell layers reached confluence, the media was replaced with OPTI-MEM media (Invitrogen Life Technologies, Carlsbad Calif.) and cell layers were incubated for approximately 24 hours in 20% O2, 10% CO2 at 37° C. Compound of the invention (one of compounds B, F, G, and H) or DMSO (0.5 to 1%) was then added to existing medium, and incubation was continued overnight.
Alternatively, nuclear fractions were prepared using a Nuclear Extract kit (Active Motif, Carlsbad Calif.) and were analyzed for HIF-1α using a TRANSAM HIF-1 ELISA kit (Active Motif) according to the manufacturer's instructions.

SMILES | abdominal fat pad weight on high-fat diet [2] | organ weights of kidney, liver, and heart between experimental groups [2] | body weight gain on high-fat diet vs untreated high-fat diet [2] | HIFα stabilization and accumulation (ELISA) compared to vehicle-treated control cells (HIF-1α) | also measured
O=C(O)CNC(=O)c1ncc2cc(Oc3ccccc3)ccc2c1O [compound C, [(4-Hydroxy-7-phenoxy-isoquinoline-3-carbonyl)-amino]-acetic acid] |  |  |  |  | protein levels of GluT-1 (GluT-1): increased
O=C(O)CNC(=O)c1nc2cc(Cl)ccc2cc1O [compound A, [(7-Chloro-3-hydroxy-quinoline-2-carbonyl)-amino]-acetic acid] | essentially the same fat pad weight as animals fed a normal diet | not different | significantly less weight gain |  | triglyceride level vs controls [1]: significantly lower than controls; triglyceride level ([1]; fasted overnight, control approximately 120 mg/dL, FIG. 11): approximately 85 mg/dL; HbA1c levels at week 8 vs non-treated [3]: significantly lower; HbA1c levels at week 8 ([3]; 8 weeks, control rose from about 7.5% to about 10%, FIG. 6): about 7.5%; HbA1c levels over time ([3]; weeks 0 to 8): did not increase over time
COc1ccc2c(O)c(C(=O)NCC(=O)O)nc(Cl)c2c1 [compound E, [(1-Chloro-4-hydroxy-7-methoxy-isoquinoline-3-carbonyl)-amino]-acetic acid] | essentially the same fat pad weight as animals fed a normal diet | not different | significantly less weight gain |  | glucose clearance rate in IPGTT, treated high-fat diet mice (RxHF) vs mice on standard chow ([4]; 2 g glucose/kg, FIG. 5A): substantially the same; glucose AUC in IPGTT, treated mice (RxChow, RxHF) vs standard chow without compound (VeChow) ([4]; FIG. 5B): no statistical difference; glucose AUC in IPGTT, high-fat chow without compound (VeHF) vs high-fat chow treated (RxHF) ([4]; t-test, p<0.05, FIG. 5B): statistically significant difference
CC(C)Oc1ccc2nc(C(=O)NCC(=O)O)c(O)cc2c1 [compound F, [(3-Hydroxy-6-isopropoxy-quinoline-2-carbonyl)-amino]-acetic acid] |  |  |  | stabilization and accumulation of HIFα | 
COC(=O)CNC(=O)c1nc(Cl)c2cc(OCc3ccccc3)ccc2c1O [compound H, [(7-Benzyloxy-1-chloro-4-hydroxy-isoquinoline-3-carbonyl)-amino]-acetic acid methyl ester] |  |  |  | stabilization and accumulation of HIFα | 
O=C(O)CNC(=O)c1ncccc1O [compound G, [(3-Hydroxy-pyridine-2-carbonyl)-amino]-acetic acid] |  |  |  | stabilization and accumulation of HIFα | 
